What was measured:
[1] = tested on: 37 monoaminergic receptors and transporters; experiment: Radioligand binding assay, whole panel; conditions: concentrations as high as 10 µM
Experimental: Currently available antidepressants are believed to act by modifying the activity of the brain monoaminergic system, [47]. We evaluated whether Mal-gluc and DHCA directly interact with the monoaminergic system using a radioligand binding assay.
Radioligand binding assays were performed as previously described. Briefly, crude membrane fractions prepared from a stable HEK cell line expressing recombinant receptors were mixed with a radiolabeled specific ligand and 10 µM of competitor compound (DHCA, Mal-gluc, or non-specific ligand). The percentage of radioligand binding was subsequently measured.

[2] = tested on: Toll-like receptor-4 mediated signaling pathways (JNK, p38, ERK, AKT); experiment: Multiplex ELISA of phosphorylated signaling proteins in PBMCs after LPS; type: cell-based, mouse
Experimental: To investigate how DHCA may attenuate IL-6 generation, we tested the effect of DHCA on Toll-like receptor-4 mediated signaling pathways. PBMCs were pretreated with DHCA and stimulated with LPS using the same protocol as during screening. Samples were taken at 0, 30 min, 60 min, 6 h and 16 h following LPS stimulation and cell lysates were subjected to a multiplex ELISA assay. […] Based on evidence that DNA methylation at a single CpG in the human IL-6 promoter region effectively alters IL-6 expression, we next tested whether DHCA can modulate IL-6 gene expression through methylation mechanisms. We treated PBMC cells with DHCA and measured the expression of enzymes essential for DNA methylation/demethylation. […] To investigate how methylation influences IL-6 gene expression, we employed the CpG-free luciferase reporter system. We cloned a ~280 bp CpG rich DNA segment from the mouse IL-6 promoter into a promoterless CpG-free reporter construct and transfected into N2a cells. We found the CpG-rich IL-6 promoter segment presented no inherent promoter activity as reflected by no differences in luciferase activity compared to the control construct (Fig. 2f). […] We then cloned CpG rich DNA segments from IL-6 introns 1, 3 or 4 into the CpG-free luciferase reporter construct with a minimal EF1 promoter and no enhancer activity. […] In contrast, the CpG-rich region of IL-6 intron 4 presented no observable enhancer activity (Fig. 2g). […] To test whether DHCA may influence the expression of other pro-inflammatory factors, we measured the level of secreted cytokines following LPS stimulation (Supplementary Fig. 3).
Luminex xMAP multiplexed immunoassays were used to evaluate the levels of phosphorylated proteins in PBMCs pre-treated with DHCA for 16 h followed by LPS stimulation. PBMCs were washed once with PBS and immediately lysed with MilliplexMAP Cell Signaling Universal Lysis Buffer and applied to the assay following manufacturer’s instruction (EMD Millipore). The phosphoprotein analytes used were: AKT (Ser473), JNK (Thr183/Tyr185), ERK (Thr185/Tyr187), p38 […] (Millipore, MA). Multiplex MAP mouse cytokine/chemokine Panel (EMD Millipore) was used to measure the levels of 32 cytokines/chemokines in mouse plasma or PBMC cultures.

[3] = tested on: HDAC2 and other class I or class II HDACs; experiment: HDAC gene expression in MSN-enriched primary culture; type: cell-based, mouse; conditions: MSN-enriched primary cultures
Source text: Stress-induced reduction of Rac1 expression is associated with a repressed chromatin state surrounding the promoter region of Rac1 in the NAc[11]. Since Mal-gluc can cross the BBB, we hypothesized that Mal-gluc may promote Rac1 expression, in part, by modulating chromatin acetylation. We first assessed the effect of Mal-gluc on HDACs that play key roles in chromatin deacetylation. […] Using site directed quantitative chromatin immunoprecipitation (qCHIP), we examined the permissive histone H3 acetylation (AcH3) in Mal-gluc treated MSN-enriched primary cultures.
Striatal tissue from E18 was mechanically triturated and centrifuged. Neurons were seeded onto a poly-D-lysine-coated 12-well plate at 5 × 10^5 cells/well and cultured in Neurobasal medium, supplemented with 2% B27, 0.5 mM L-glutamine, and 1% penicillin-streptomycin (Gibco-BRL, Invitrogen). Following 4 days in vitro (DIV), 5 µM of Ara-c was used to inhibit the growth of glial cells. Following 10-day DIV culturing, neurons were treated with select brain-bioavailable polyphenol metabolites for 16 h, washed once with cold PBS and RNA was then isolated. […]
(§1) Total RNA from MSN-enriched cultures or brain NAc was isolated using the RNeasy Mini Kit (Qiagen, Valencia, CA, USA) and reverse transcribed. Gene expression was measured in four replicates by quantitative RT-PCR using Maxima SYBR Green master mix (Fermentas) in ABI Prism 7900HT. […]

Rac1 = experiment: In vivo dose finding: Rac1 mRNA in the NAc; set-up: species or system mouse; conditions: 50 ng to 5 mg/kg-BW/day in drinking water, 2 weeks; strongest at 500 ng and 5 µg/kg-BW/day
Experimental: We then initiated dose response and safety studies in mice to determine testing dosages and safety of DHCA and Mal-gluc. C57BL/6 mice were treated with either DHCA (doses ranging from 50 µg to 50 mg/kg-BW/day) or Mal-gluc (doses ranging from 50 ng to 5 mg/kg-BW/day) for 2 weeks to simulate long-term administration. Mice treated with DHCA were challenged with intraperitoneal (i.p.) injection of 0.4 mg/kg-BW LPS and plasma levels of IL-6 were measured 6 h post injection. […] Following common discovery-stage practices, we measured the plasma levels of alkaline phosphatase (ALP), aspartate aminotransferase (AST), and alanine aminotransferase (ALT) for liver function and blood urea nitrogen (BUN) for renal function.
Male C57BL/6 J mice (8-week-old) were placed on a polyphenol-free AIN-93M diet and treated with various doses of DHCA (vehicle, 50 µg, 500 µg, 5 mg, and 50 mg/kg-BW/day), delivered through their drinking water for two weeks. […]
as §1

[4] = 30 min and 60 min following LPS, no further changes at 6 h and 16 h
[5] = PBMCs, DHCA pretreatment, 0, 30 min, 60 min, 6 h, 16 h after LPS

Structure (SMILES) | binding with any of the 37 receptors and transporters tested [1] | decrease in AKT activation [2, 4] | decrease in ERK activation [2, 4] | activation (phosphorylation) of JNK [2, 5] | activation (phosphorylation) of p38 [2, 5] | expression of HDAC2 [3] | expression of other class I or class II HDACs [3] | Rac1 mRNA in the NAc (Rac1)
O=C(O)CCc1ccc(O)c(O)c1 [DHCA, 3(3,4-dihydroxy-phenyl) propionic acid] | no significant binding | ~ 10% | ~ 10% | no effect | no effect |  |  | 
COc1cc(-c2[o+]c3cc(O)cc(O)c3cc2O[C@@H]2O[C@H](CO)[C@@H](O)[C@H](O)[C@H]2O)cc(OC)c1O [Mal-gluc] |  |  |  |  |  | significantly reduced the expression of HDAC2 | no observable effect | dose-response increase of Rac1 expression
